The source of these data is patent US6268366A, “Amide derivatives of substituted quinoxaline 2,3-diones as glutamate receptor antagonists” (Warner-Lambert Company, priority 2000, dated 2001).

pIC50: −log10 of the molar value.

In data set [1] the target is kainate site (non-NMDA receptor). In words: kainate site (non-NMDA receptor) binding affinity (London and Coyle).
In data set [2] the target is T1, glycine (GLY) site of the NMDA receptor (Rattus norvegicus, UniProt P35439).
T1 construct: measured as described in Jones S. M., et al., Pharmacol. Methods, 1989;21:161; from tissue
In words: glycine (GLY) site of the NMDA receptor binding affinity (Jones et al.).

In data set [3] the target is AMPA receptors. In words: AMPA receptor binding affinity (Honore et al.).
The test system of data set [4] is CF-1 strain mice. Kind of data set: maximal electroshock (MES) assay in CF-1 strain mice, corneal electrodes. To be noted: for Ataxic (%) / Protected (%): MES, mice IV; for duration of action in maximal electroshock time course compared with PNQX: mice, 30 mg/kg IV, versus standard PNQX, FIGS. 1 and 2. The class given is in vivo. As to the method: Additionally, as a preliminary indicator of in vivo CNS activity related to anticonvulsant activity and potential neuroprotection, a maximal electroshock assay in CF-1 strain mice (20-25 g) was performed with corneal electrodes by conventional methods as described previously (Krall, et al., Epilepsia, 1988;19:409-428).
FIGS. […] The graph is the percent of mice protected versus the time in minutes.

As to `CC(=O)N(C)Cc1c(C)c([N+](=O)[O-])cc2[nH]c(=O)c(=O)[nH]c12` [Compound 1, N-Methyl-N-(6-methyl-7-nitro-2,3-dioxo-1,2,3,4-tetrahydro-quinoxalin-5-ylmethyl)-acetamide], the “IC50 KA” value in data set [1] was found to be 1660 nM. For the same compound, the pIC50 in data set [2] is 7.52; in data set [3] it was 6.46.

With `Cc1c([N+](=O)[O-])cc2[nH]c(=O)c(=O)[nH]c2c1CN(C)C(=O)C1CCCCC1` [Compound 3, Cyclohexanecarboxylic acid-methyl-(6-methyl-7-nitro-2,3-dioxo-1,2,3,4-tetrahydro-quinoxalin-5-ylmethyl)amide], the “IC50 KA” value in data set [1] was determined as 3210 nM. Moreover, the results for the pIC50 in data set [2] and in data set [3] were 6.52 and 6.04, respectively.

With `Cc1c([N+](=O)[O-])cc2[nH]c(=O)c(=O)[nH]c2c1CN(C)C(=O)CC1CCCCC1` [Compound 4, 2-Cyclohexyl-N-methyl-N-(6-methyl-7-nitro-2,3-dioxo-1,2,3,4-tetrahydro-quinoxalin-5-ylmethyl)-acetamide], the “IC50 KA” value in data set [1] stood at 2970 nM. For the same compound, the results for the pIC50 in data set [2] and in data set [3] were 6.70 and 5.69, respectively.

With `Cc1c([N+](=O)[O-])cc2[nH]c(=O)c(=O)[nH]c2c1CN(C)C(=O)Cc1ccccc1` [Compound 5, N-methyl-N-(6-methyl-7-nitro-2,3-dioxo-1,2,3,4-tetrahydro-quinoxalin-5-ylmethyl)-2-phenyl-acetamide], in data set [1], the “IC50 KA” value came to 590 nM. For the same compound, the pIC50 was 7.70 in data set [2] and 6.46 in data set [3].

Take `Cc1c([N+](=O)[O-])cc2[nH]c(=O)c(=O)[nH]c2c1CN(C)C(=O)c1ccccc1` [Compound 6, N-methyl-N-(6-methyl-7-nitro-2,3-dioxo-1,2,3,4-tetrahydro-quinoxalin-5-ylmethyl)-benzamide]: in data set [1], the “IC50 KA” value was found to be 2770 nM. For the same compound, the pIC50 in data set [2] was 7.52; in data set [3] it was 5.91.

As for `Cc1c([N+](=O)[O-])cc2[nH]c(=O)c(=O)[nH]c2c1CN(C)C(=O)c1ccc(Cl)cc1` [Compound 7, 4-Chloro-N-methyl-N-(6-Methyl-7-nitro-2,3-dioxo-1,2,3,4-tetrahydro-quinoxalin-5-ylmethyl)-benzamide], the “IC50 KA” value in data set [1] is 1980 nM. The values for the negative-log IC50 (pIC50) in data set [2] and in data set [3] were 7.40 and 6.01, respectively.

As for `Cc1c([N+](=O)[O-])cc2[nH]c(=O)c(=O)[nH]c2c1CN(C)C(=O)c1ccc(C(F)(F)F)cc1` [Compound 8, N-Methyl-N-(6-Methyl-7-nitro-2,3-dioxo-1,2,3,4-tetrahydro-quinoxalin-5-ylmethyl)-4-trifluoromethyl-benzamide], in data set [1], the “IC50 KA” value stood at 3700 nM. In data set [3], this compound had a pIC50 of 5.72.

Regarding `Cc1c([N+](=O)[O-])cc2[nH]c(=O)c(=O)[nH]c2c1CN(C)C(=O)c1ccc(Cl)c(Cl)c1` [Compound 9, 3,4-Dichloro-N-methyl-N-(6-methyl-7-nitro-2,3-dioxo-1,2,3,4-tetrahydro-quinoxalin-5-ylmethyl)-benzamide], in data set [1], the “IC50 KA” value amounted to 3450 nM. The compound also gave a pIC50 in data set [3] of 5.77.

Consider `Cc1c([N+](=O)[O-])cc2[nH]c(=O)c(=O)[nH]c2c1CN(C)C(=O)c1ccc([N+](=O)[O-])cc1` [Compound 10, N-Methyl-N-(6-Methyl-7-nitro-2,3-dioxo-1,2,3,4-tetrahydro-quinoxalin-5-ylmethyl)-4-nitro-benzamide], for which the “IC50 KA” value in data set [1] is 950 nM. In addition, in data set [3], the pIC50 was 5.95.

Consider `Cc1c([N+](=O)[O-])cc2[nH]c(=O)c(=O)[nH]c2c1CN(C)C(=O)c1cccs1` [Compound 11, Thiophene-2-carboxylic acid-methyl-(6-methyl-7-nitro-2,3-dioxo-1,2,3,4-tetrahydro-quinoxalin-5-ylmethyl)-amide], for which, in data set [1], the “IC50 KA” value is 1230 nM. Also, the pIC50 was 8.10 in data set [2] and 6.34 in data set [3]. In addition, the “Ataxic (%)” value in data set [4] (5 min, 10 mg/kg) worked out at 0%; in data set [4] (5 min, 30 mg/kg) it was 40%; in data set [4] (15 min, 10 mg/kg), 0%; in data set [4] (15 min, 30 mg/kg) it was 60%; in data set [4] (30 min, 10 mg/kg) it was 0%; in data set [4] (30 min, 30 mg/kg) it was 20%. Further, the “Ataxic (%)” value in data set [4] (60 min, 10 mg/kg) is given as 0%; in data set [4] (60 min, 30 mg/kg) it was 20%. Also, the “Protected (%)” value in data set [4] (5 min, 10 mg/kg) amounted to 0%; in data set [4] (5 min, 30 mg/kg), 40%; in data set [4] (15 min, 10 mg/kg), 40%; in data set [4] (15 min, 30 mg/kg) it was 80%; in data set [4] (30 min, 10 mg/kg), 40%; in data set [4] (30 min, 30 mg/kg) it was 40%. Moreover, the “Protected (%)” value was 0% in data set [4] (60 min, 10 mg/kg) and 40% in data set [4] (60 min, 30 mg/kg). For the same compound, in data set [4], the “duration of action in maximal electroshock time course compared with PNQX” value is reported as “extended duration of action”.

Regarding `Cc1c([N+](=O)[O-])cc2[nH]c(=O)c(=O)[nH]c2c1CN(C)C(=O)c1ccco1` [Compound 12, Furan-2-carboxylic acid methyl-(6-methyl-7-nitro-2,3-dioxo-1,2,3,4-tetrahydro-quinoxalin-5-ylmethyl)-amide], the “IC50 KA” value in data set [1] was determined as 1210 nM. Further, the figures for the pIC50 in data set [2] and in data set [3] were 8.22 and 6.42, respectively. Further, the “Ataxic (%)” value in data set [4] (3 min, 30 mg/kg) is given as 40%; in data set [4] (15 min, 10 mg/kg) it was 0%; in data set [4] (15 min, 30 mg/kg), 60%; in data set [4] (30 min, 30 mg/kg), 20%; in data set [4] (60 min, 30 mg/kg), 20%. Further, the “Protected (%)” value in data set [4] (3 min, 30 mg/kg) came out at 40%; in data set [4] (15 min, 10 mg/kg), 40%; in data set [4] (15 min, 30 mg/kg), 80%; in data set [4] (30 min, 10 mg/kg), 40%; in data set [4] (30 min, 30 mg/kg) it was 40%; in data set [4] (60 min, 30 mg/kg), 40%. In addition, the “duration of action in maximal electroshock time course compared with PNQX” value in data set [4] is given as “extended duration of action”.

As to `Cc1c([N+](=O)[O-])cc2[nH]c(=O)c(=O)[nH]c2c1CN(C)C(=O)c1cc2ccccc2s1` [Compound 13, Benzo[b]thiophene-2-carboxylic acid methyl-(6-methyl-7-nitro-2,3-dioxo-1,2,3,4-tetrahydro-quinoxalin-5-ylmethyl)-amide], in data set [1], the “IC50 KA” value is 5980 nM. Also, the pIC50 in data set [2] was 7.40; in data set [3], 6.21.

For `COc1ccc(C(=O)N(C)Cc2c(C)c([N+](=O)[O-])cc3[nH]c(=O)c(=O)[nH]c23)cc1` [Compound 14, 4-Methoxy-N-methyl-N-(6-methyl-7-nitro-2,3-dioxo-1,2,3,4-tetrahydro-quinoxalin-5-ylmethyl)-benzamide], the “IC50 KA” value in data set [1] is 850 nM. For the same compound, the pIC50 was 8.30 in data set [2] and 6.28 in data set [3].

On to `CCOC(=O)N(C)Cc1c(C)c([N+](=O)[O-])cc2[nH]c(=O)c(=O)[nH]c12` [Compound 15, Methyl-(6-methyl-7-nitro-2,3-dioxo-1,2,3,4-tetrahydro-quinoxalin-5-ylmethyl)-carbamic acid ethyl ester], for which the “IC50 KA” value in data set [1] stood at 290 nM. For the same compound, the negative logarithm of the IC50 (pIC50) is 7.00 in data set [2] and 6.68 in data set [3]. For the same compound, the “Ataxic (%)” value in data set [4] (10 min, 3 mg/kg) is reported as 0%; in data set [4] (10 min, 10 mg/kg) it was 0%; in data set [4] (30 min, 3 mg/kg) it was 0%; in data set [4] (30 min, 10 mg/kg), 0%. The “Protected (%)” value in data set [4] (10 min, 3 mg/kg) is listed as 0%; in data set [4] (10 min, 10 mg/kg) it was 40%; in data set [4] (30 min, 3 mg/kg), 0%; in data set [4] (30 min, 10 mg/kg), 60%.

The pIC50 is the IC50 on a negative log10 scale, so that one unit is a factor of ten. Higher therefore signals a small IC50.
